According to the NIST ThermoML archive (doi:10.1021/je050429b):

Conditions: Gas, Oscillating disk viscometry

CO [methanol]
Conditions | viscosity [mPa·s]
297.41 K, Amount density=10.1 mol/m3 | 0.009532
297.43 K, Amount density=8.17 mol/m3 | 0.009551
297.64 K, Amount density=3.79 mol/m3 | 0.009594
297.92 K, Amount density=38.68 mol/m3 | 0.009555
298.16 K, Amount density=6.32 mol/m3 | 0.009594
298.54 K, Amount density=13.2 mol/m3 | 0.009579
298.71 K, Amount density=49.53 mol/m3 | 0.009576
299.79 K, Amount density=32.22 mol/m3 | 0.009602
299.92 K, Amount density=24.58 mol/m3 | 0.009618
301.53 K, Amount density=17.93 mol/m3 | 0.009672
310.88 K, Amount density=24.58 mol/m3 | 0.009948
311.12 K, Amount density=17.93 mol/m3 | 0.009959
311.23 K, Amount density=8.17 mol/m3 | 0.01002
311.6 K, Amount density=32.22 mol/m3 | 0.009969
311.6 K, Amount density=38.68 mol/m3 | 0.009971
312.25 K, Amount density=6.32 mol/m3 | 0.01008
312.54 K, Amount density=3.79 mol/m3 | 0.0101
313.89 K, Amount density=10.1 mol/m3 | 0.01008
314.18 K, Amount density=13.2 mol/m3 | 0.01008
314.2 K, Amount density=49.53 mol/m3 | 0.01004
324.75 K, Amount density=3.79 mol/m3 | 0.0105
324.77 K, Amount density=49.53 mol/m3 | 0.01037
324.78 K, Amount density=32.22 mol/m3 | 0.01038
325.15 K, Amount density=8.17 mol/m3 | 0.0105
325.22 K, Amount density=10.1 mol/m3 | 0.0105
325.59 K, Amount density=17.93 mol/m3 | 0.01046
325.76 K, Amount density=13.2 mol/m3 | 0.01049
325.91 K, Amount density=6.32 mol/m3 | 0.01054
325.98 K, Amount density=24.58 mol/m3 | 0.01042
326.88 K, Amount density=38.68 mol/m3 | 0.01044
338.47 K, Amount density=8.17 mol/m3 | 0.01095
338.62 K, Amount density=10.1 mol/m3 | 0.01094
338.66 K, Amount density=32.22 mol/m3 | 0.01083
338.69 K, Amount density=3.79 mol/m3 | 0.01098
338.72 K, Amount density=38.68 mol/m3 | 0.0108
338.81 K, Amount density=49.53 mol/m3 | 0.01077
339.25 K, Amount density=17.93 mol/m3 | 0.01094
339.34 K, Amount density=13.2 mol/m3 | 0.01096
339.77 K, Amount density=6.32 mol/m3 | 0.01101
340.14 K, Amount density=24.58 mol/m3 | 0.01092
352.35 K, Amount density=49.53 mol/m3 | 0.01125
352.62 K, Amount density=8.17 mol/m3 | 0.01143
352.86 K, Amount density=10.1 mol/m3 | 0.01142
352.91 K, Amount density=3.79 mol/m3 | 0.01148
352.93 K, Amount density=3.79 mol/m3 | 0.01144
353.05 K, Amount density=8.17 mol/m3 | 0.01146
353.06 K, Amount density=38.68 mol/m3 | 0.01132
353.18 K, Amount density=38.68 mol/m3 | 0.01134
353.2 K, Amount density=49.53 mol/m3 | 0.01127
353.22 K, Amount density=13.2 mol/m3 | 0.01143
353.26 K, Amount density=13.2 mol/m3 | 0.01143
353.3 K, Amount density=6.32 mol/m3 | 0.01148
353.44 K, Amount density=10.1 mol/m3 | 0.01147
353.58 K, Amount density=17.93 mol/m3 | 0.01143
353.71 K, Amount density=24.58 mol/m3 | 0.01142
353.78 K, Amount density=32.22 mol/m3 | 0.01139
355.04 K, Amount density=32.22 mol/m3 | 0.01143
355.05 K, Amount density=24.58 mol/m3 | 0.01143
355.5 K, Amount density=6.32 mol/m3 | 0.01152
355.67 K, Amount density=17.93 mol/m3 | 0.01148
366.59 K, Amount density=10.1 mol/m3 | 0.01189
366.82 K, Amount density=8.17 mol/m3 | 0.01191
366.84 K, Amount density=3.79 mol/m3 | 0.01191
366.93 K, Amount density=17.93 mol/m3 | 0.01188
366.99 K, Amount density=32.22 mol/m3 | 0.01184
367.1 K, Amount density=13.2 mol/m3 | 0.01189
367.81 K, Amount density=49.53 mol/m3 | 0.01182
367.84 K, Amount density=6.32 mol/m3 | 0.01195
367.87 K, Amount density=38.68 mol/m3 | 0.01184
368.03 K, Amount density=24.58 mol/m3 | 0.0119
380.86 K, Amount density=10.1 mol/m3 | 0.01238
380.97 K, Amount density=13.2 mol/m3 | 0.01236
381.27 K, Amount density=3.79 mol/m3 | 0.0124
381.27 K, Amount density=49.53 mol/m3 | 0.0123
381.38 K, Amount density=8.17 mol/m3 | 0.01241
381.53 K, Amount density=17.93 mol/m3 | 0.01238
381.9 K, Amount density=38.68 mol/m3 | 0.01233
381.92 K, Amount density=32.22 mol/m3 | 0.01237
382.15 K, Amount density=6.32 mol/m3 | 0.01244
383.55 K, Amount density=24.58 mol/m3 | 0.01243
394.63 K, Amount density=10.1 mol/m3 | 0.01285
394.76 K, Amount density=8.17 mol/m3 | 0.01286
394.88 K, Amount density=49.53 mol/m3 | 0.01278
395.16 K, Amount density=32.22 mol/m3 | 0.01282
395.18 K, Amount density=24.58 mol/m3 | 0.01282
395.23 K, Amount density=17.93 mol/m3 | 0.01285
395.37 K, Amount density=38.68 mol/m3 | 0.01281
395.39 K, Amount density=3.79 mol/m3 | 0.01287
395.4 K, Amount density=13.2 mol/m3 | 0.01285
396.23 K, Amount density=6.32 mol/m3 | 0.01291
409.39 K, Amount density=13.2 mol/m3 | 0.01333
409.51 K, Amount density=10.1 mol/m3 | 0.01336
409.75 K, Amount density=24.58 mol/m3 | 0.01333
410.18 K, Amount density=32.22 mol/m3 | 0.01333
410.35 K, Amount density=38.68 mol/m3 | 0.01331
411.3 K, Amount density=3.79 mol/m3 | 0.01343
411.31 K, Amount density=6.32 mol/m3 | 0.01342
411.32 K, Amount density=49.53 mol/m3 | 0.01335
412.01 K, Amount density=17.93 mol/m3 | 0.01338
412.33 K, Amount density=8.17 mol/m3 | 0.01346
423.31 K, Amount density=8.17 mol/m3 | 0.01382
423.5 K, Amount density=3.79 mol/m3 | 0.01383
423.52 K, Amount density=49.53 mol/m3 | 0.01376
423.77 K, Amount density=13.2 mol/m3 | 0.01383
423.88 K, Amount density=32.22 mol/m3 | 0.0138
423.96 K, Amount density=10.1 mol/m3 | 0.01385
424.38 K, Amount density=17.93 mol/m3 | 0.01383
424.41 K, Amount density=24.58 mol/m3 | 0.01382
424.73 K, Amount density=6.32 mol/m3 | 0.01388
425.1 K, Amount density=38.68 mol/m3 | 0.0138
437.6 K, Amount density=10.1 mol/m3 | 0.01431
437.81 K, Amount density=8.17 mol/m3 | 0.01431
438.41 K, Amount density=13.2 mol/m3 | 0.01432
439.16 K, Amount density=32.22 mol/m3 | 0.01431
439.2 K, Amount density=24.58 mol/m3 | 0.01432
439.47 K, Amount density=17.93 mol/m3 | 0.01434
439.56 K, Amount density=49.53 mol/m3 | 0.0143
440.07 K, Amount density=6.32 mol/m3 | 0.01441
440.61 K, Amount density=3.79 mol/m3 | 0.01441
441.61 K, Amount density=38.68 mol/m3 | 0.01437
466.95 K, Amount density=24.58 mol/m3 | 0.01528
467.33 K, Amount density=10.1 mol/m3 | 0.0153
467.34 K, Amount density=38.68 mol/m3 | 0.01528
467.49 K, Amount density=49.53 mol/m3 | 0.01528
467.62 K, Amount density=32.22 mol/m3 | 0.01528
467.74 K, Amount density=13.2 mol/m3 | 0.01531
468.08 K, Amount density=17.93 mol/m3 | 0.01532
468.85 K, Amount density=3.79 mol/m3 | 0.01537
496.21 K, Amount density=38.68 mol/m3 | 0.01626
496.4 K, Amount density=8.17 mol/m3 | 0.01627
496.41 K, Amount density=17.93 mol/m3 | 0.01629
496.43 K, Amount density=13.2 mol/m3 | 0.01627
496.44 K, Amount density=24.58 mol/m3 | 0.01629
496.48 K, Amount density=49.53 mol/m3 | 0.01625
496.56 K, Amount density=10.1 mol/m3 | 0.01629
496.65 K, Amount density=3.79 mol/m3 | 0.01631
496.97 K, Amount density=32.22 mol/m3 | 0.0163
525.14 K, Amount density=49.53 mol/m3 | 0.01724
525.41 K, Amount density=3.79 mol/m3 | 0.01727
525.42 K, Amount density=8.17 mol/m3 | 0.01727
526.17 K, Amount density=32.22 mol/m3 | 0.01727
526.39 K, Amount density=13.2 mol/m3 | 0.01729
526.84 K, Amount density=24.58 mol/m3 | 0.0173
527.02 K, Amount density=38.68 mol/m3 | 0.01727
527.99 K, Amount density=17.93 mol/m3 | 0.01734
546.79 K, Amount density=8.17 mol/m3 | 0.018
546.84 K, Amount density=13.2 mol/m3 | 0.01798
547.13 K, Amount density=3.79 mol/m3 | 0.01802
547.3 K, Amount density=32.22 mol/m3 | 0.01801
547.49 K, Amount density=38.68 mol/m3 | 0.018
548.04 K, Amount density=49.53 mol/m3 | 0.01803
548.52 K, Amount density=17.93 mol/m3 | 0.01806
567.4 K, Amount density=13.2 mol/m3 | 0.01868
567.53 K, Amount density=32.22 mol/m3 | 0.01872
568.11 K, Amount density=38.68 mol/m3 | 0.01872
569.26 K, Amount density=3.79 mol/m3 | 0.01879
569.93 K, Amount density=49.53 mol/m3 | 0.01875
571.83 K, Amount density=17.93 mol/m3 | 0.01886
596.93 K, Amount density=13.2 mol/m3 | 0.01969
597.12 K, Amount density=32.22 mol/m3 | 0.01975
597.15 K, Amount density=17.93 mol/m3 | 0.01973
597.28 K, Amount density=49.53 mol/m3 | 0.01971
597.6 K, Amount density=3.79 mol/m3 | 0.01977
598.6 K, Amount density=38.68 mol/m3 | 0.01979
602.56 K, Amount density=8.17 mol/m3 | 0.01994
